# Source: patent US9233121B2, “Compositions and methods for the treatment of cancer” (BOARD OF REGENTS OF THE UNIVERSITY OF NEBRASKA, priority 2011, dated 2016)
# How the values were obtained:
# Type in all cases: cell-based, human
# [1] = test system: SW1990-SP cells; assay: Drug sensitivity: gemcitabine treatment of SP cells; conditions: 6.0 μM gemcitabine, 4, 10 and 20 days
# Method: (§1) Both SP and NSP cells were cultured in gelatinized tissue culture dishes in stem cell specific medium containing Dulbecco's Modified Eagle's Medium (DMEM; GIBCO) and F12 supplemented with 10% ES specific fetal bovine serum (FBS; Invitrogen), L-glutamine (GIBCO), 100 nM nonessential amino acids (GIBCO), 1000 U/ml LIF (Sigma), bFGF (Invitrogen) and Pen/Strp. Two different conditions were maintained for both SP and NSP cells. First, both SP and NSP cells were maintained in the above-mentioned stem cell specific media and in another condition both the cells were maintained for a few days in 10% FBS containing DMEM media which was replaced with stem cell specific medium. The SP cells have also been grown in stem cell specific media and NSP cells have been grown in 10% FBS containing DMEM media.
# (§2) The human hPaf1/PD2 region was targeted with specific siRNA (sequence 5′-[…]-3′; SEQ ID NO: 1). Synthetic sense and antisense oligonucleotides (Dharmacon, Lafayette, Colo.) were annealed in 100 mM potassium acetate, 30 mM HEPES-KOH (pH 7.4), and 2 mM magnesium acetate for one minute at 90° C. and one hour at 37° C., and frozen. […]
# (§3) Tumor relapse occurs in cancer patients due to the important phenomena known as drug resistance. […] The expression of ALDH1 was analyzed in the gemcitabine treated SW1990-SP cells.
# [2] = test system: SW1990 NSP cells; assay: Drug sensitivity: gemcitabine treatment of NSP cells; conditions: 6.0 μM gemcitabine, several days
# Method: as §1, §2, §3
# [3] = test system: ALDH1; assay: Western blot of ALDH1 in gemcitabine treated SP cells; conditions: gemcitabine (6 μM) treated SW1990-SP cells compared to non-treated SP cells
# Method: (§4) SP and NSP cells were processed for protein extraction and western blotting using standard procedures. Briefly, the cells were washed twice in PBS and lysed in RIPA buffer (100 mM Tris, 5 mM EDTA, 5% NP40; pH8.0) containing protease inhibitors (1 mM phenyl-methyl sulphonyl fluoride, 1 μg/ml aprotinin, 1 μg/ml leupeptin) and kept at 4° C. and supernatant were collected. Resolved proteins were transferred on to the PVDF membrane. After a quick wash in PBST (Phosphate buffered saline and 0.1% Tween 20), the membranes were blocked in 5% nonfat dry milk in PBS for at least 1 hour and then incubated with primary antibodies (anti-hPaf1/PD2, anti-ALDH1, anti-CD133, anti-CD44, anti-Shh and anti-β-actin) (diluted in 3% BSA in PBS) for overnight at 4° C. Then the membrane was washed (3×10 minutes) in PBST at room temperature and probed with 1:2000 diluted horseradish peroxidase-conjugated anti-mouse or anti-rabbit secondary antibodies for 1 hour at room temperature and washed 5×10 minutes with PBST. The signal was detected with an ECL chemiluminescence kit (Amersham Bioscience, UK).
# as §3
# [4] = test system: hPaf1/PD2; assay: Western blot of hPaf1/PD2 in gemcitabine treated SP cells; conditions: gemcitabine (6 μM) treated SW1990-SP cells compared to untreated SP cells
# Method: as §4
# [5] = test system: SW1990-SP cells; assay: hPaf1/PD2 knockdown with gemcitabine treatment in SP cells: phenotype, viability, FACS apoptosis
# Method: The human hPaf1/PD2 region was targeted with specific siRNA (sequence 5′-[…]-3′; SEQ ID NO: 1). Synthetic sense and antisense oligonucleotides (Dharmacon, Lafayette, Colo.) were annealed in 100 mM potassium acetate, 30 mM HEPES-KOH (pH 7.4), and 2 mM magnesium acetate for one minute at 90° C. and one hour at 37° C., and frozen. Oligonucleotides were transfected into cells with TransIT-TKO (Mirus, Madison, Wis.) in accordance with the supplier's recommendations. Gemcitabine (6 μM) treatment was done for 20 days.
# Following the previous drug sensitivity experiment, hPaf1/PD2 was transiently knocked down using RNAi oligos. The knockdown was carried out in vitro under stem cell specific culture condition.
structure (smiles),measurement,setting,value
Nc1ccn([C@@H]2O[C@H](CO)[C@@H](O)C2(F)F)c(=O)n1 [gemcitabine],growth of SP cells on drug treatment,[1],"continued to grow even after 4, 10 and 20 days of treatment"
same,cell death of NSP cells on drug treatment,[2],Cell death was observed
same,expression of ALDH1 (western blot),[3],significantly elevated expression of ALDH1
same,expression of hPaf1/PD2 (western blot),[4],maintained
same,"percentage of cell death (FACS-apoptosis analysis, PI staining)",[5]; hPaf1/PD2 knockdown SP cells with gemcitabine treatment compared to control cells,increased percentage of cell death
same,viability of SP cells,[5]; seven days gemcitabine with transient knockdown (72 hours) of hPaf1/PD2 in SW1990-SP cells,decreased the viability of SP cells
